Results reported in patent publication US20240083857A1, “2-Methyl-Quinazolines” (Bayer Pharma Aktiengesellschaft, priority 2017, published 2024).

Key:
[1] = biological target: K-Ras^G12C : hSOS1 interaction (Homo sapiens, UniProt Q07889); assay: Biochemical assay 1: K-Ras^G12C interaction assay with hSOS1 (HTRF); type: binding; conditions: for IC50: read-out: Assay 1 (KRAS-SOS Interaction) activity expressed as IC50; for inhibition at 20 µM: read-out: Assay 1 (KRAS-SOS Interaction) activity expressed as % inhibition at 20 μM
[2] = biological target: human SOS1 (nucleotide exchange of K-Ras^G12C) (Homo sapiens, UniProt Q07889); assay: Biochemical assay 2: K-Ras^G12C activation assay by hSOS1 at high GTP concentration (HTRF); conditions: high GTP; for IC50: read-out: Assay 2 (KRAS-Activation by SOS high GTP) activity expressed as IC50; for inhibition at 20 µM: read-out: Assay 2 (KRAS-Activation by SOS high GTP) activity expressed as % inhibition at 20 μM
[3] = biological target: human SOS1 (loading of human K-Ras^G12C-GDP with fluorescent GTP-analog) (Homo sapiens, UniProt Q07889); assay: Biochemical assay 3: K-Ras^G12C activation assay by hSOS1 (HTRF); conditions: no GTP; for IC50: read-out: Assay 3 (KRAS-Activation by SOS no GTP) activity expressed as IC50; for inhibition at 20 µM: read-out: Assay 3 (KRAS-Activation by SOS no GTP) activity expressed as % inhibition at 20 μM

Compound	IC50 [1] [nM]	IC50 [2] [nM]	IC50 [3] [nM]	inhibition at 20 µM [1] [%]	inhibition at 20 µM [2] [%]	inhibition at 20 µM [3] [%]
COc1cc2nc(C)nc(N[C@H](C)c3cccc(-c4ccccc4C(=O)N(C)C)c3)c2cc1OC [Example 103, 3′-{(1R)-1-[(6,7-dimethoxy-2-methylquinazolin-4-yl)amino]ethyl}-N,N-dimethylbiphenyl-2-carboxamide]	1440	2480	2740	–	–	–
COc1cc2nc(C)nc(N[C@H](C)c3cccc(C4=CCCC4)c3)c2cc1OC [Example 117, N-{(1R)-1-[3-(cyclopent-1-en-1-yl)phenyl]ethyl}-6,7-dimethoxy-2-methylquinazolin-4-amine]	1650	1350	3080	–	–	–
COc1cc2nc(C)nc(N[C@@H](C)c3ccc(-c4cccc5[nH]ccc45)s3)c2cc1OC (racemic) [Example 171, N-{1-[5-(1H-indol-4-yl)thiophen-2-yl]ethyl}-6,7-dimethoxy-2-methylquinazolin-4-amine]	5590	3370	7180	–	–	–
COc1cc2nc(C)nc(NC(C)c3ccc(-c4ccccc4CNCC(=O)N(C)C)s3)c2cc1OC (stereo not drawn) [Example 280, 2-[2-(5-{1-[(6,7-dimethoxy-2-methylquinazolin-4-yl)amino]ethyl}thiophen-2-yl)benzyl]-N,N-dimethylglycinamide]	148	120	135	–	–	–
COc1cc2nc(C)nc(N[C@@H](C)c3ccc(-c4cc(Cl)cc(Cl)c4)s3)c2cc1OC (stereo in doubt) [Example 122, N-{1-[5-(3,5-dichlorophenyl)thiophen-2-yl]ethyl}-6,7-dimethoxy-2-methylquinazolin-4-amine]	–	–	–	46	17	21
COc1cc2nc(C)nc(N[C@@H](C)c3ccc(-c4ccccc4C(=O)N(C)C)s3)c2cc1OC (racemic) [Example 48, 2-(5-{1-[(6,7-dimethoxy-2-methylquinazolin-4-yl)amino]ethyl}thiophen-2-yl)-N,N-dimethylbenzamide]	2120	3270	4520	–	–	–
COc1cc2nc(C)nc(N[C@H](C)c3cccc(/C=C/c4ccccc4)c3)c2cc1OC [Example 114, 6,7-dimethoxy-2-methyl-N-[(1R)-1-{3-[(E)-2-phenylethenyl]phenyl}ethyl]quinazolin-4-amine]	5280	2390	9210	–	–	–
COc1cc2nc(C)nc(N[C@@H](C)c3ccc(-c4ccccc4S(C)(=O)=O)s3)c2cc1OC (racemic) [Example 148, 6,7-dimethoxy-2-methyl-N-[1-{5-[2-(methylsulfonyl)phenyl]thiophen-2-yl}ethyl]quinazolin-4-amine]	1410	3400	3060	–	–	–
COc1cc2nc(C)nc(N[C@@H](C)c3ccc(-c4ccoc4)s3)c2cc1OC (racemic) [Example 153, N-{1-[5-(furan-3-yl)thiophen-2-yl]ethyl}-6,7-dimethoxy-2-methylquinazolin-4-amine]	2350	2730	4100	–	–	–
COc1cc2nc(C)nc(N[C@H](C)c3cccc(-c4cccc(OC(F)(F)F)c4)c3)c2cc1OC [Example 84, 6,7-dimethoxy-2-methyl-N-{(1R)-1-[3′-(trifluoromethoxy)biphenyl-3-yl]ethyl}quinazolin-4-amine]	5330	7200	11000	–	–	–
COc1cc2nc(C)nc(N[C@@H](C)c3ccc(-c4cc5ccccc5n4C)s3)c2cc1OC (racemic) [Example 155, 6,7-dimethoxy-2-methyl-N-{1-[5-(1-methyl-1H-indol-2-yl)thiophen-2-yl]ethyl}quinazolin-4-amine]	992	1470	1640	–	–	–
COc1cc2nc(C)nc(N[C@@H](C)c3ccc(-c4cccc(-c5nnc(C)o5)c4)s3)c2cc1OC (stereo in doubt) [Example 126, 6,7-dimethoxy-2-methyl-N-[1-{5-[3-(5-methyl-1,3,4-oxadiazol-2-yl)phenyl]thiophen-2-yl}ethyl]quinazolin-4-amine]	–	–	–	52	31	11
COc1cc2nc(C)nc(N[C@H](C)c3cccc(-c4ccc5c(c4)OCCO5)c3)c2cc1OC [Example 125, N-{(1R)-1-[3-(2,3-dihydro-1,4-benzodioxin-6-yl)phenyl]ethyl}-6,7-dimethoxy-2-methylquinazolin-4-amine]	2030	1090	2040	–	–	–
COc1cc2nc(C)nc(N[C@@H](C)c3ccc(-c4ccc(NC(=O)OC(C)(C)C)cc4)s3)c2cc1OC (stereo in doubt) [Example 159, tert-butyl [4-(5-{1-[(6,7-dimethoxy-2-methylquinazolin-4-yl)amino]ethyl}thiophen-2-yl)phenyl]carbamate]	–	–	–	43	27	35
COc1cc2nc(C)nc(N[C@@H](C)c3ccc(-c4cncc(S(C)(=O)=O)c4)s3)c2cc1OC (racemic) [Example 127]	17800	–	–	–	44	42
CCCOc1ccccc1-c1cccc([C@@H](C)Nc2nc(C)nc3cc(OC)c(OC)cc23)c1 [Example 102, 6,7-dimethoxy-2-methyl-N-[(1R)-1-(2′-propoxybiphenyl-3-yl)ethyl]quinazolin-4-amine]	6380	3560	11500	–	–	–
C/C=C/c1ccc([C@H](C)Nc2nc(C)nc3cc(OC)c(OC)cc23)s1 (racemic) [Example 177, 6,7-dimethoxy-2-methyl-N-[1-{5-[(1E)-prop-1-en-1-yl]thiophen-2-yl}ethyl]quinazolin-4-amine]	5770	6700	–	–	–	49
CCC/C=C/c1cccc([C@@H](C)Nc2nc(C)nc3cc(OC)c(OC)cc23)c1 [Example 89, 6,7-dimethoxy-2-methyl-N-[(1R)-1-{3-[(1E)-pent-1-en-1-yl]phenyl}ethyl]quinazolin-4-amine]	1680	2680	4260	–	–	–
COc1cc2nc(C)nc(N[C@H](C)c3cccc(-c4c(F)ccc(C)c4Cl)c3)c2cc1OC [Example 40, N-[(1R)-1-(2′-chloro-6′-fluoro-3′-methylbiphenyl-3-yl)ethyl]-6,7-dimethoxy-2-methylquinazolin-4-amine]	3850	1750	4550	–	–	–
COc1cc2nc(C)nc(N[C@H](C)c3cccc(-c4csc5ccccc45)c3)c2cc1OC [Example 87, N-{(1R)-1-[3-(1-benzothiophen-3-yl)phenyl]ethyl}-6,7-dimethoxy-2-methylquinazolin-4-amine]	4420	3460	7420	–	–	–
CNC(=O)CNCc1ccccc1-c1ccc(C(C)Nc2nc(C)nc3cc(OC)c(OC)cc23)s1 (stereo not drawn) [Example 282, 2-[2-(5-{1-[(6,7-dimethoxy-2-methylquinazolin-4-yl)amino]ethyl}thiophen-2-yl)benzyl]-N-methylglycinamide]	257	265	212	–	–	–
COc1cc2nc(C)nc(N[C@H](C)c3cc4cccc(OC)c4o3)c2cc1OC (stereo in doubt) [Example 33, 6,7-dimethoxy-N-[1-(7-methoxy-1-benzofuran-2-yl)ethyl]-2-methylquinazolin-4-amine]	–	–	–	53	24	9
COc1cc2nc(C)nc(N[C@H](C)c3cccc(-c4ccc5cc[nH]c5c4)c3)c2cc1OC [Example 109, N-{(1R)-1-[3-(1H-indol-6-yl)phenyl]ethyl}-6,7-dimethoxy-2-methylquinazolin-4-amine]	1000	392	1410	–	–	–
COc1cc2nc(C)nc(N[C@H](C)c3cccc(-c4ccccc4NC(C)=O)c3)c2cc1OC [Example 119, N-(3′-{(1R)-1-[(6,7-dimethoxy-2-methylquinazolin-4-yl)amino]ethyl}biphenyl-2-yl)acetamide]	858	1280	1480	–	–	–
COc1cc2nc(C)nc(N[C@@H](C)c3ccc(-c4ccc5[nH]ccc5c4)s3)c2cc1OC (racemic) [Example 152, N-{1-[5-(1H-indol-5-yl)thiophen-2-yl]ethyl}-6,7-dimethoxy-2-methylquinazolin-4-amine]	5480	7330	11100	–	–	–
COc1cc2nc(C)nc(N[C@@H](C)c3ccc(-c4cnc(N)nc4)s3)c2cc1OC (racemic) [Example 131, N-{1-[5-(2-aminopyrimidin-5-yl)thiophen-2-yl]ethyl}-6,7-dimethoxy-2-methylquinazolin-4-amine]	2230	3370	5940	–	–	–
COc1cc2nc(C)nc(N[C@H](C)c3cccc(-c4ccccc4S(=O)(=O)N(C)C)c3)c2cc1OC [Example 101, 3′-{(1R)-1-[(6,7-dimethoxy-2-methylquinazolin-4-yl)amino]ethyl}-N,N-dimethylbiphenyl-2-sulfonamide]	715	897	1800	–	–	–
COc1cc2nc(C)nc(N[C@@H](C)c3ccc(-c4ccccc4Oc4ccccc4)s3)c2cc1OC (stereo in doubt) [Example 158, 6,7-dimethoxy-2-methyl-N-{1-[5-(2-phenoxyphenyl)thiophen-2-yl]ethyl}quinazolin-4-amine]	–	–	–	29	4	10
